One may read the IC50 as the concentration that inhibits the measured activity by half.

Where a name gives a salt, the structure may show the parent alone. Some results are limits rather than exact numbers.

Holding throughout (type): cell-based
One assay relates to A549 cells. The assay can be described thus: Cell growth, CellTiter-Glo Luminescent Cell Viability Assay, A549. Particulars: Homo sapiens, 72 h incubation. In outline: (§1)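 K562, A549 and HCT-116 cells in exponential growth exposed to inhibitors at varying concentrations for 72 h. Viability read as ATP luminescence (CellTiter-Glo, 10 min at RT after lysis); IC50 from dose-response, reported as ranges.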

Another assay concerns K562 cells. The assay can be described thus: Cell growth, CellTiter-Glo Luminescent Cell Viability Assay, K562. The conditions noted are these: Homo sapiens, 72 h incubation. The gist of the method: as §1
Another assay has as its system HCT-116 cells. The assay can be described thus: Cell growth, CellTiter-Glo Luminescent Cell Viability Assay, HCT-116. The conditions noted are these: Homo sapiens, 72 h incubation, read-out: IC50 HCT116. In outline:
as §1

Take `CC(=O)N1CCN(C(=O)/C=C/c2cccc(/C=C/C(=O)NO)n2)CC1c1ccccc1` (racemic) [Example 66, (±)-(E)-3-{6-[(E)-3-(4-Acetyl-3-phenyl-piperazin-1-yl)-3-oxo-propenyl]-pyridin-2-yl}-N-hydroxy-acrylamide hydrochloride]: the IC50 with A549 cells, with K562 cells and in the assay with HCT-116 cells was at least 3000 nM throughout.
With `O=C(/C=C/c1cccc(/C=C/C(=O)N2CCN(c3cccc(Cl)c3)CC2)c1)NO` [Example 85, (E)-3-(3-{(E)-3-[4-(3-Chloro-phenyl)-piperazin-1-yl]-3-oxo-propenyl}-phenyl)-N-hydroxy-acrylamide hydrochloride], the IC50 in the assay with A549 cells was at least 3000 nM; in the assay with K562 cells it was 1000 to 3000 nM; in the assay on HCT-116 cells it was 1000 to 3000 nM.
As for `O=C(/C=C/c1cccc(/C=C/C(=O)N2CCC(c3nc4ccccc4[nH]3)CC2)n1)NO` [Example 59, (E)-3-(6-{(E)-3-[4-(1H-Benzoimidazol-2-yl)-piperidin-1-yl]-3-oxo-propenyl}-pyridin-2-yl)-N-hydroxy-acrylamide hydrochloride], the IC50 in the assay on A549 cells, with K562 cells and with HCT-116 cells was at least 3000 nM throughout.
Regarding `O=C(/C=C/c1cccc(/C=C/C(=O)N2CCN(c3ccc(Br)cc3)CC2)n1)NO` [Example 38, (E)-3-(6-{(E)-3-[4-(4-Bromo-phenyl)-piperazin-1-yl]-3-oxo-propenyl}-pyridin-2-yl)-N-hydroxy-acrylamide hydrochloride], the 50% inhibitory concentration (IC50) in the assay with A549 cells, in the assay with K562 cells and with HCT-116 cells was at most 1000 nM throughout.
With `O=C(/C=C/c1cccc(/C=C/C(=O)N2CCC(C(=O)c3ccccc3)CC2)c1)NO` [Example 77, (E)-3-{3-[(E)-3-(4-Benzoyl-piperidin-1-yl)-3-oxo-propenyl]phenyl}-N-hydroxy-acrylamide], the IC50 with A549 cells is at least 3000 nM; in the assay with K562 cells, 1000 to 3000 nM; with HCT-116 cells, 1000 to 3000 nM.
As to `O=C(/C=C/c1cccc(/C=C/C(=O)N2CCCC(c3ccccc3)C2)n1)NO` (racemic) [Example 25, (±)-(E)-N-Hydroxy-3-{6-[(E)-3-oxo-3-(3-phenyl-piperidin-1-yl)-propenyl]-pyridin-2-yl}-acrylamide hydrochloride], the IC50 in the assay with A549 cells, with K562 cells and in the assay on HCT-116 cells was at most 1000 nM in each case.
As for `Cc1cccc(C2CCCN(C(=O)/C=C/c3cccc(/C=C/C(=O)NO)n3)C2)c1` (racemic) [Example 43, (±)-(E)-N-Hydroxy-3-{6-[(E)-3-oxo-3-(3-m-tolyl-piperidin-1-yl)-propenyl]-pyridin-2-yl}-acrylamide hydrochloride], the IC50 with A549 cells, with K562 cells and in the assay with HCT-116 cells was at most 1000 nM throughout.
As to `O=C(/C=C/c1cccc(/C=C/C(=O)N2CCCC(c3nc(-c4ccc(F)cc4)no3)C2)n1)NO` (stereo not drawn) [Example 94, (E)-3-[6-((E)-3-{3-[3-(4-Fluoro-phenyl)-[1,2,4]oxadiazol-5-yl]-piperidin-1-yl}-3-oxo-propenyl)-pyridin-2-yl]-N-hydroxy-acrylamide hydrochloride], the IC50 in the assay with A549 cells was 1000 to 3000 nM; in the assay on K562 cells, at most 1000 nM; with HCT-116 cells, at most 1000 nM.
On to `O=C(/C=C/c1cccc(/C=C/C(=O)N2CCCC(c3ccc(F)cc3)C2)c1)NO` (racemic) [Example 84, (±)-(E)-3-(3-{(E)-3-[3-(4-Fluoro-phenyl)-piperidin-1-yl]-3-oxo-propenyl}-phenyl)-N-hydroxy-acrylamide], for which the IC50 in the assay with A549 cells, in the assay with K562 cells and in the assay on HCT-116 cells was at least 3000 nM each time.
`Cc1cccc(C)c1C1CCN(C(=O)/C=C/c2cccc(/C=C/C(=O)NO)n2)CC1` [Example 27, (E)-3-(6-{(E)-3-[4-(2,6-Dimethyl-phenyl)-piperidin-1-yl]-3-oxo-propenyl}-pyridin-2-yl)-N-hydroxy-acrylamide hydrochloride]: the IC50 in the assay on A549 cells, in the assay on K562 cells and in the assay with HCT-116 cells was 1000 to 3000 nM in each case.
For the compound `O=C(/C=C/c1cccc(/C=C/C(=O)N2CC=C(c3ccccc3)CC2)c1)NO` [Example 75, (E)-N-Hydroxy-3-{3-[(E)-3-oxo-3-(4-phenyl-3,6-dihydro-2H-pyridin-1-yl)-propenyl]-phenyl}-acrylamide], the values for the IC50 with A549 cells, in the assay with K562 cells and in the assay on HCT-116 cells were 1000 to 3000 nM, 1000 to 3000 nM and at most 1000 nM, respectively.
Turning to `N#Cc1ccc(N2CCN(C(=O)/C=C/c3cccc(/C=C/C(=O)NO)c3)CC2)cc1` [Example 88, (E)-3-(3-{(E)-3-[4-(4-Cyano-phenyl)-piperazin-1-yl]-3-oxo-propenyl}-phenyl)-N-hydroxy-acrylamide hydrochloride], the IC50 in the assay on A549 cells was 1000 to 3000 nM; in the assay with K562 cells, at most 1000 nM; with HCT-116 cells, at most 1000 nM.
Turning to `CN1CCN(C(=O)/C=C/c2cccc(/C=C/C(=O)NO)n2)CC1c1ccccc1` (racemic) [Example 63, (±)-(E)-N-Hydroxy-3-{6-[(E)-3-(4-methyl-3-phenyl-piperazin-1-yl)-3-oxo-propenyl]-pyridin-2-yl}-acrylamide hydrochloride], the IC50 was 1000 to 3000 nM in the assay on A549 cells, at most 1000 nM in the assay with K562 cells and at most 1000 nM in the assay with HCT-116 cells.
Consider `O=C(/C=C/c1cccc(/C=C/C(=O)N2CCN(c3ccccc3)CC2)n1)NO` [Example 13, (E)-N-Hydroxy-3-{6-[(E)-3-oxo-3-(4-phenyl-piperazin-1-yl)-propenyl]-pyridin-2-yl}-acrylamide], for which the IC50 with A549 cells, in the assay on K562 cells and with HCT-116 cells was 1000 to 3000 nM throughout.
For the compound `O=C(/C=C/c1cccc(/C=C/C(=O)N2CCC=C(c3ccccc3)C2)n1)NO` [Example 95, (E)-N-Hydroxy-3-{6-[(E)-3-oxo-3-(5-phenyl-3,6-dihydro-2H-pyridin-1-yl)-propenyl]-pyridin-2-yl}-acrylamide hydrochloride], the IC50 in the assay on A549 cells, in the assay with K562 cells and with HCT-116 cells was at most 1000 nM each time.
Take `COc1ccccc1C1CCCN(C(=O)/C=C/c2cccc(/C=C/C(=O)NO)n2)C1` (racemic) [Example 67, (±)-(E)-N-Hydroxy-3-(6-{(E)-3-[3-(2-methoxy-phenyl)-piperidin-1-yl]-3-oxo-propenyl}-pyridin-2-yl)-acrylamide hydrochloride]: the figures for the IC50 with A549 cells, in the assay with K562 cells and with HCT-116 cells were 1000 to 3000 nM, at most 1000 nM and at most 1000 nM, respectively.
With `O=C(/C=C/c1cccc(/C=C/C(=O)N2CCN(c3ccc(F)cc3)CC2)n1)NO` [Example 37, (E)-3-(6-{(E)-3-[4-(4-Fluoro-phenyl)-piperazin-1-yl]-3-oxo-propenyl}-pyridin-2-yl)-N-hydroxy-acrylamide hydrochloride], the values for the IC50 in the assay on A549 cells, in the assay on K562 cells and in the assay with HCT-116 cells were 1000 to 3000 nM, 1000 to 3000 nM and at most 1000 nM, respectively.
For `O=C(/C=C/c1cccc(/C=C/C(=O)N2CCCC(c3ccccc3F)C2)n1)NO` (stereo not drawn) [Example 92, (E)-3-(6-{(E)-3-[3-(2-Fluoro-phenyl)-piperidin-1-yl]-3-oxo-propenyl}-pyridin-2-yl)-N-hydroxy-acrylamide hydrochloride], the IC50 with A549 cells, in the assay on K562 cells and in the assay with HCT-116 cells was at most 1000 nM each time.
